Like-named read-outs stand apart in the source and are kept apart here.
Assays:
[1] = molecular target: EGFR del19/T790M/C797S (Homo sapiens, UniProt P00533, C797S/DEL746-750/T790M); test: Biochemical EGFR kinase assay (Lance Ultra TR-FRET), triple mutant del19/T790M/C797S
Procedure, shortened: (§1)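 Step 1: compound in kinase buffer, 0.003–10 μM. Step 2: kinase reaction 1 h at room temperature. Step 4: TR-FRET read at 615/665 nm; IC50 calculated.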

[2] = molecular target: EGFR L858R/T790M/C797S (Homo sapiens, UniProt P00533, C797S/L858R/T790M); test: Biochemical EGFR kinase assay (Lance Ultra TR-FRET), triple mutant L858R/T790M/C797S
Procedure, shortened: as §1

[3] = molecular target: EGFR del19/C797S (Homo sapiens, UniProt P00533, C797S/DEL746-750); test: Biochemical EGFR kinase assay (Lance Ultra TR-FRET), double mutant del19/C797S
Procedure, shortened: as §1

[4] = molecular target: EGFR L858R/C797S (Homo sapiens, UniProt P00533, C797S/L858R); test: Biochemical EGFR kinase assay (Lance Ultra TR-FRET), double mutant L858R/C797S
Procedure, shortened: as §1

[5] = molecular target: EGFR wildtype (Homo sapiens, UniProt P00533); test: Biochemical EGFR kinase assay (Lance Ultra TR-FRET), wildtype
Procedure, shortened: as §1

[6] = IC50 del19/T790M/C797S (nM) 100 μM ATP, 100 μM ATP
[7] = Km ATP, read-out: IC50 del19/T790M/C797S (nM) Km ATP
[8] = IC50 L858R/T790M/C797S (nM) 100 μM ATP, 100 μM ATP
[9] = Km ATP, read-out: IC50 L858R/T790M/C797S (nM) Km ATP
[10] = IC50 del19/C797S (nM) 100 μM ATP, 100 μM ATP
[11] = Km ATP, read-out: IC50 del19/C797S (nM) Km ATP
[12] = IC50 L858R/C797S (nM) 100 μM ATP, 100 μM ATP
[13] = Km ATP, read-out: IC50 L858R/C797S (nM) Km ATP
[14] = IC50 WT (nM) 100 μM ATP, 100 μM ATP
[15] = Km ATP, read-out: IC50 WT (nM) Km ATP
[16] = ATP at Km, read-out: IC50 del19/T790M/C797S, Km ATP
[17] = ATP at Km, read-out: IC50 L858R/T790M/C797S, Km ATP
[18] = ATP at Km, read-out: IC50 del19/C797S, Km ATP
[19] = ATP at Km, read-out: IC50 L858R/C797S, Km ATP
[20] = ATP at Km, read-out: IC50 WT, Km ATP

Chain of EGFR wildtype (P00533 25-1210): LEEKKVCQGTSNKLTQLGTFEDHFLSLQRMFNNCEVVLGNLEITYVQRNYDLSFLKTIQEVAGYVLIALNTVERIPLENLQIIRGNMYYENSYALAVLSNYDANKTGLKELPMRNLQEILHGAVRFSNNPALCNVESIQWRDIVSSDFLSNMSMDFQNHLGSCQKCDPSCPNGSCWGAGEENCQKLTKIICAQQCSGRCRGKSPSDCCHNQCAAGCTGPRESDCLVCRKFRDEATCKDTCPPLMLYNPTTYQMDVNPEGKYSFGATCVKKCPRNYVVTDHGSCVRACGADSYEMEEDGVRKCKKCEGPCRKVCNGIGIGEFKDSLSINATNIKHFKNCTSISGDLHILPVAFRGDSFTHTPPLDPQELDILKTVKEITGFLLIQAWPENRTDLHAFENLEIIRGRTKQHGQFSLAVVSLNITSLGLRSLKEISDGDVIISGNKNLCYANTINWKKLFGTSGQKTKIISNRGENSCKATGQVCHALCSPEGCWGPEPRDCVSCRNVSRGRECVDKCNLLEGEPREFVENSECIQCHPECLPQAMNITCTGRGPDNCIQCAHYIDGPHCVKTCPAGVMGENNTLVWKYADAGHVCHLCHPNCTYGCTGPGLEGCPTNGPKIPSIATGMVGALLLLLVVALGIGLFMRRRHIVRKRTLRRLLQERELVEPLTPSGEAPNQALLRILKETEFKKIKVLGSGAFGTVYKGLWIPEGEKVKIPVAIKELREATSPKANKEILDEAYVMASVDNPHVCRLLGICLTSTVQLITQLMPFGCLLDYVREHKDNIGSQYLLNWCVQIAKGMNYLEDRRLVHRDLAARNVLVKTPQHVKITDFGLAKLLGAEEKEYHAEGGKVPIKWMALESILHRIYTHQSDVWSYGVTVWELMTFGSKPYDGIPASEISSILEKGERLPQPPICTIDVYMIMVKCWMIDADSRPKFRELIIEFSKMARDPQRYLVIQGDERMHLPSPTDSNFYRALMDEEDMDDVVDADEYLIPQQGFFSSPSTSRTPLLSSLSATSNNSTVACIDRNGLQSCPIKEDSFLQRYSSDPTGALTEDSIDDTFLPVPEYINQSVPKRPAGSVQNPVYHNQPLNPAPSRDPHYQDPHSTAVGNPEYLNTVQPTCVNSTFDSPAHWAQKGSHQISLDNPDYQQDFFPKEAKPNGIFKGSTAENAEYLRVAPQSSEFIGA
Chain of EGFR del19/T790M/C797S (P00533 with tags, fused parts or gaps DEL746-750/T790M/C797S): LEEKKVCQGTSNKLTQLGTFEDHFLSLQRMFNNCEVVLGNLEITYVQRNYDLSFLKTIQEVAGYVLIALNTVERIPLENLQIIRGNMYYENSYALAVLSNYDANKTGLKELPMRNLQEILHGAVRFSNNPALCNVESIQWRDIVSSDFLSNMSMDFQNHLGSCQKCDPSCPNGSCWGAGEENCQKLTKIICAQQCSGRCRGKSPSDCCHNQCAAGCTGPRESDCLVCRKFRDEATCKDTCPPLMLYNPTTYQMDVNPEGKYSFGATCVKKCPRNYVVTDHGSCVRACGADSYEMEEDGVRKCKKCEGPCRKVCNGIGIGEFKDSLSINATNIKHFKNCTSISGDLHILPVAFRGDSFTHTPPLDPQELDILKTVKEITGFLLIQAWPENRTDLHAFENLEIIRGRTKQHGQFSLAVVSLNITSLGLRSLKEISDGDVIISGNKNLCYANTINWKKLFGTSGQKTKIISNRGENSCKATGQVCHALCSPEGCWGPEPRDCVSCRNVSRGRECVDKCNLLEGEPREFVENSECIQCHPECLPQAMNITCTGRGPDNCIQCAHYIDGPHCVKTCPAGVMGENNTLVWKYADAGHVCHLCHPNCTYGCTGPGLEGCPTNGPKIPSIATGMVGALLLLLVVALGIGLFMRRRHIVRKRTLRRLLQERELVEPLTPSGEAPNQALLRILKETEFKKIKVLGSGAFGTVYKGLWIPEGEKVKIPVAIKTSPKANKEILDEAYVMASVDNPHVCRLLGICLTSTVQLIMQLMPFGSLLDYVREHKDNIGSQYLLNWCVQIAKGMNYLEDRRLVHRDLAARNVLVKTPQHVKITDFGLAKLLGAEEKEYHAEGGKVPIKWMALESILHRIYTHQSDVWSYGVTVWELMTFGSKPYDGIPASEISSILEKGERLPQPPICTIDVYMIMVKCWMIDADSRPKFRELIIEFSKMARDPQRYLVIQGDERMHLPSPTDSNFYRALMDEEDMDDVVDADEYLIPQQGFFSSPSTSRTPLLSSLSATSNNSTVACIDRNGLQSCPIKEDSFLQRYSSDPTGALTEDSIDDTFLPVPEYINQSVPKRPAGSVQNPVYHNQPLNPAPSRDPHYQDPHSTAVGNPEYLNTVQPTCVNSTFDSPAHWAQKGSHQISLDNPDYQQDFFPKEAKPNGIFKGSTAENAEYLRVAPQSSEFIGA
Chain of EGFR L858R/T790M/C797S (P00533 25-1210 T790M/C797S/L858R): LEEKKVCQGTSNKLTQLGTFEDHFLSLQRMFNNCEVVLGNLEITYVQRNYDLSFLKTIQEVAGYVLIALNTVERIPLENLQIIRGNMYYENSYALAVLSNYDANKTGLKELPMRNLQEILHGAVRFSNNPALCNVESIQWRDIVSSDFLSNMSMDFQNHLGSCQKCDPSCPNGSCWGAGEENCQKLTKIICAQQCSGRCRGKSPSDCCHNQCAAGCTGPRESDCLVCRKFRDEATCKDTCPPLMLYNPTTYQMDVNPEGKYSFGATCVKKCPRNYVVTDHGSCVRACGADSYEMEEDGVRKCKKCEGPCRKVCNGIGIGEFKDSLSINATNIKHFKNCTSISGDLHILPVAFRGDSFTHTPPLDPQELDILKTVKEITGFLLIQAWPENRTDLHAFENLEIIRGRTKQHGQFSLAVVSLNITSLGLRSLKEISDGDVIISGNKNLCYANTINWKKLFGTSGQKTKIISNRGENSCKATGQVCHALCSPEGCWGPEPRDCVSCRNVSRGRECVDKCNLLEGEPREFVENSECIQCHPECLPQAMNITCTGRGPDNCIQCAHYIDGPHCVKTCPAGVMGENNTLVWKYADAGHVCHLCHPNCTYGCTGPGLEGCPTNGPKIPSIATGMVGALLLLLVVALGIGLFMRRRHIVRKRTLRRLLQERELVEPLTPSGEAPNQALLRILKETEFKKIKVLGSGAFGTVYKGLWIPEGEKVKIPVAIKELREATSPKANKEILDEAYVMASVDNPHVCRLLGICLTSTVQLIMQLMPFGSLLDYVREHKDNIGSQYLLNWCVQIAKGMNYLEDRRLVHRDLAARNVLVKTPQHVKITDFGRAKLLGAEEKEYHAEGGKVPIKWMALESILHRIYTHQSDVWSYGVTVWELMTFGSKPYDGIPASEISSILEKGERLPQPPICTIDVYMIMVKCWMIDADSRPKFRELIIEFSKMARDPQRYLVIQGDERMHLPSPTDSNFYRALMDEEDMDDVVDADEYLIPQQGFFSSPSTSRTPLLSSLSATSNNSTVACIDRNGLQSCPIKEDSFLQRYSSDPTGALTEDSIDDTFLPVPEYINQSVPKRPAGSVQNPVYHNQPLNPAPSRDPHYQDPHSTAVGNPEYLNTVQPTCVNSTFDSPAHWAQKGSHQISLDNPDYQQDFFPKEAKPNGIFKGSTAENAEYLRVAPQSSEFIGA
Chain of EGFR del19/C797S (P00533 with tags, fused parts or gaps DEL746-750/C797S): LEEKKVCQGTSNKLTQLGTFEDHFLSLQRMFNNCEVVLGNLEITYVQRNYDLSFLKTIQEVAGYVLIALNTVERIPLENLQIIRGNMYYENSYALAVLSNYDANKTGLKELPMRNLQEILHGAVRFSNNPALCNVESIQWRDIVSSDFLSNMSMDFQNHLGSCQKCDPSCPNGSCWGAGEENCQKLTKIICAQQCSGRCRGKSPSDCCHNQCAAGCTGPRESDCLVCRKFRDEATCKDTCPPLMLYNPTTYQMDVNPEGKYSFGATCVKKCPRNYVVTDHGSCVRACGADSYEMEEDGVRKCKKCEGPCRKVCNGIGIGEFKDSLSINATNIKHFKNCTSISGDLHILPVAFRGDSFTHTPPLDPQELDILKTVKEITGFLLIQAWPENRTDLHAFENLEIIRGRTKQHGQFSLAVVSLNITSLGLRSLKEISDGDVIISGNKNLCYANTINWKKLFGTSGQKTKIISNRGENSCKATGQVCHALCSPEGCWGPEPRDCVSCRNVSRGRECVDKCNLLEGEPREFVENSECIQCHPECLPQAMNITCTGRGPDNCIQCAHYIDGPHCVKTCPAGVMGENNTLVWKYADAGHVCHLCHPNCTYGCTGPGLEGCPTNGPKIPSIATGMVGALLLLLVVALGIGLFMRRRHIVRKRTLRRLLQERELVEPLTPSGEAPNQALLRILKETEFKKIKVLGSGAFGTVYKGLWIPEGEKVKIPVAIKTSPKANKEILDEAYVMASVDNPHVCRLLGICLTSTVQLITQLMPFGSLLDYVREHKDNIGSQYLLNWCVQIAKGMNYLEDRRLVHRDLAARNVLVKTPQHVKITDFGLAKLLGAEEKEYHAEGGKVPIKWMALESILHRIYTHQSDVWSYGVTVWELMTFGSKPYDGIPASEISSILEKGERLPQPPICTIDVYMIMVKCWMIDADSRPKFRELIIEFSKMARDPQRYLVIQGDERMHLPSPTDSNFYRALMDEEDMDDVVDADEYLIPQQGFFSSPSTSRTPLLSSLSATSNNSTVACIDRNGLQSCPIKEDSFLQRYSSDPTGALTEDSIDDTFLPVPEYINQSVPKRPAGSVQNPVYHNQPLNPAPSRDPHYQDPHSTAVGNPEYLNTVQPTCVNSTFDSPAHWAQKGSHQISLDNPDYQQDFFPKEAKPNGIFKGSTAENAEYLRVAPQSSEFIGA

SMILES: O=S(=O)(C1CC1)n1cc(-c2nccc(Nc3cc(N[C@H]4CC[C@@H](CO)CC4)c(-c4ccc(N5CCCC5)cn4)cn3)n2)cn1 [Example 81, ((1s,4s)-4-((6′-((2-(1-(Cyclopropylsulfonyl)-1H-pyrazol-4-yl)pyrimidin-4-yl)amino)-5-(pyrrolidin-1-yl)-[2,3′-bipyridin]-4′-yl)amino)cyclohexyl)methanol]
- IC50 [1, 6]: 3.1 nM
- IC50 [1, 7]: 2.4 nM
- IC50 [2, 8]: 6 nM
- IC50 [2, 9]: 2 nM
- IC50 [3, 10]: 19 nM
- IC50 [3, 11]: 4 nM
- IC50 [4, 12]: 13 nM
- IC50 [4, 13]: 3.3 nM
- IC50 [5, 14]: 3650 nM
- IC50 [5, 15]: 11.7 nM

SMILES: CC(C)(O)[C@H]1CC[C@@H](Nc2cc(Nc3ccnc(-c4cnn(S(=O)(=O)C5CC5)c4)n3)ncc2-c2ccc(CN3CCOCC3)cn2)CC1 [Example 25, 2-((1s,4s)-4-((6′-((2-(1-(Cyclopropylsulfonyl)-1H-pyrazol-4-yl)pyrimidin-4-yl)amino)-5-(morpholinomethyl)-[2,3′-bipyridin]-4′-yl)amino)cyclohexyl)propan-2-ol]
- IC50 [1, 6]: 1.1 nM
- IC50 [1, 7]: 1 nM
- IC50 [2, 8]: 1.2 nM
- IC50 [2, 9]: 0.8 nM
- IC50 [3, 10]: 0.5 nM
- IC50 [3, 11]: 0.5 nM
- IC50 [4, 12]: 2 nM
- IC50 [4, 13]: 0.3 nM
- IC50 [5, 14]: 1830 nM
- IC50 [5, 15]: 1.9 nM

SMILES: CN(C)S(=O)(=O)n1cc(-c2nccc(Nc3cc(N[C@H]4CC[C@@](C)(O)CC4)c(-c4ccc(CC(F)(F)F)cn4)cn3)n2)cn1 [Example 296, 4-(4-((4′-(((1s,4s)-4-Hydroxy-4-methylcyclohexyl)amino)-5-(2,2,2-trifluoroethyl)-[2,3′-bipyridin]-6′-yl)amino)pyrimidin-2-yl)-N,N-dimethyl-1H-pyrazole-1-sulfonamide]
- IC50 [1, 16]: 4.5 nM
- IC50 [2, 17]: 3.7 nM
- IC50 [3, 18]: 17.6 nM
- IC50 [4, 19]: 10.1 nM
- IC50 [5, 20]: 89.8 nM

SMILES: O=S(=O)(C1CC1)n1cc(-c2nccc(Nc3cc(N[C@H]4CC[C@@H](CO)CC4)c(-c4cc(CN5CCC(F)(F)CC5)ccn4)cn3)n2)cn1 [Example 113, ((1s,4s)-4-((6′-((2-(1-(Cyclopropylsulfonyl)-1H-pyrazol-4-yl)pyrimidin-4-yl)amino)-4-((4,4-difluoropiperidin-1-yl)methyl)-[2,3′-bipyridin]-4′-yl)amino)cyclohexyl)methanol]
- IC50 [1, 6]: 5.3 nM
- IC50 [1, 7]: 7.5 nM
- IC50 [2, 8]: 3.2 nM
- IC50 [2, 9]: 2.3 nM
- IC50 [3, 10]: 19.9 nM
- IC50 [3, 11]: 11 nM
- IC50 [4, 12]: 20.8 nM
- IC50 [4, 13]: 8.8 nM
- IC50 [5, 14]: > 10000 nM
- IC50 [5, 15]: 15 nM

SMILES: C[C@]1(O)CC[C@@H](Nc2nccc(-c3cnc(Nc4ccnc(-c5cnn(S(=O)(=O)C6CC6)c5)n4)cc3N[C@H]3CC[C@@](C)(O)CC3)n2)CC1 [Example 191, (1s,4s)-4-((4-(6-((2-(1-(Cyclopropylsulfonyl)-1H-pyrazol-4-yl)pyrimidin-4-yl)amino)-4-(((1s,4s)-4-hydroxy-4-methylcyclohexyl)amino)pyridin-3-yl)pyrimidin-2-yl)amino)-1-methylcyclohexan-1-ol]
- IC50 [1, 16]: 1 nM
- IC50 ([1]; IC50 del19/T790M/C797S, 100 μM ATP): 1.7 nM
- IC50 [2, 17]: 0.3 nM
- IC50 [3, 18]: 2.3 nM
- IC50 ([3]; IC50 del19/C797S, 100 μM ATP): 6.5 nM
- IC50 [4, 19]: 1.6 nM
- IC50 ([4]; IC50 L858R/C797S, 100 μM ATP): 26.4 nM
- IC50 [5, 20]: 27.4 nM
- IC50 ([5]; IC50 WT, 100 μM ATP): > 10000 nM

SMILES: CN(C)CCOc1cnc(-c2cnc(Nc3ccnc(-c4cnn(S(=O)(=O)C5CC5)c4)n3)cc2N[C@H]2CC[C@@H](CO)CC2)cn1 [Example 116, ((1s,4s)-4-((2-((2-(1-(Cyclopropylsulfonyl)-1H-pyrazol-4-yl)pyrimidin-4-yl)amino)-5-(5-(2-(dimethylamino)ethoxy)pyrazin-2-yl)pyridin-4-yl)amino)cyclohexyl)methanol]
- IC50 [1, 6]: 0.1 nM
- IC50 [1, 7]: 0.1 nM
- IC50 [2, 8]: 0.04 nM
- IC50 [2, 9]: 0.04 nM
- IC50 [3, 10]: 0.1 nM
- IC50 [3, 11]: 0.1 nM
- IC50 [4, 12]: 0.3 nM
- IC50 [4, 13]: 0.1 nM
- IC50 [5, 14]: 384 nM
- IC50 [5, 15]: 0.4 nM

SMILES: COC(c1ccc(-c2cnc(Nc3ccnc(-c4cnn(S(=O)(=O)C5CC5)c4)n3)cc2NC2CCC(CN(C)C)CC2)nc1)C(F)(F)F (centres unmarked) [Example 262, N^6′-(2-(1-(Cyclopropylsulfonyl)-1H-pyrazol-4-yl)pyrimidin-4-yl)-N^4′-((1s,4s)-4-((dimethylamino)methyl)cyclohexyl)-5-(2,2,2-trifluoro-1-methoxyethyl)-[2,3′-bipyridine]-4′,6′-diamine]
- IC50 [1, 16]: 1.9 nM
- IC50 [2, 17]: 0.5 nM
- IC50 [3, 18]: 1.9 nM
- IC50 [4, 19]: 0.9 nM
- IC50 [5, 20]: 2 nM

— patent publication US12258328B2, “6-membered heteroaryl-containing aminopyridine compounds as EGFR inhibitors” (YUHAN CORPORATION, priority 2021, dated 2025)
